ChEMBL document CHEMBL3046894, “Synthesis and Herbicidal Activity of Pyrimidinyl Salicylic and Thiosalicylic Acids” (J Pestic Sci, 1996)
Activity calls are given as the source filed them. The calls are words filed in the database; no cut-off is given here.

How the values were obtained:
Gossypium hirsutum [1] = test: Post-emergence phytotoxicity against Gossypium hirsutum (cotton) assessed as mortality per 10 acre; format: organism-based; conditions: in vivo
Echinochloa crus-galli [2] = test: Pre-emergence herbicidal activity against Echinochloa crus-galli (barnyard grass) assessed as mortality at 6.3 g a.i/10 a; format: functional
Ipomoea lacunosa [3] = test: Post-emergence herbicidal activity against Ipomoea lacunosa assessed as mortality at 1.6 g a.i/10 a applied 11 days after germination as foliar spray; format: functional; conditions: 264 h
Abutilon theophrasti [4] = test: Post-emergence herbicidal activity against Abutilon theophrasti (velvetleaf) assessed as mortality at 6.3 g a.i/10 a applied 11 days after germination as foliar spray; format: functional; conditions: 264 h
Gossypium hirsutum [5] = test: (§1) Pre-emergence phytotoxicity against Gossypium hirsutum (cotton) assessed as mortality at 6.3 g a.i/10 a; format: organism-based; conditions: in vivo, other
Glycine max [6] = test: (§2) Pre-emergence phytotoxicity against Glycine max (soybean) assessed as mortality at 1.6 g a.i/10 a; format: organism-based; conditions: in vivo, other
Glycine max [7] = test: (§3) Pre-emergence phytotoxicity against Glycine max (soybean) assessed as mortality at 6.3 g a.i/10 a; format: organism-based; conditions: in vivo, other
[8] = (§4) Pre-emergence phytotoxicity against Zea mays (maize) assessed as mortality at 1.6 g a.i/10 a; format: organism-based; conditions: in vivo, 1.6 g a.i/10 a
Gossypium hirsutum [9] = test: Post-emergence phytotoxicity against Gossypium hirsutum (cotton) assessed as mortality at 1.6 g a.i/10 a applied 11 days after germination as foliar spray; format: organism-based; conditions: in vivo, other, 264 h
Gossypium hirsutum [10] = test: Post-emergence phytotoxicity against Gossypium hirsutum (cotton) assessed as mortality at 6.3 g a.i/10 a applied 11 days after germination as foliar spray; format: organism-based; conditions: in vivo, other, 264 h
[11] = (§5) Post-emergence phytotoxicity against Glycine max (soybean) assessed as mortality at 1.6 g a.i/10 a applied 11 days after germination as foliar spray; format: organism-based; conditions: in vivo, 1.6 g a.i/10 a
[12] = (§6) Post-emergence phytotoxicity against Zea mays (maize) assessed as mortality at 1.6 g a.i/10 a applied 11 days after germination as foliar spray; format: organism-based; conditions: in vivo, 1.6 g a.i/10 a
Xanthium strumarium [13] = test: Post-emergence herbicidal activity against Xanthium strumarium (cocklebur) assessed as mortality at 1.6 g a.i/10 a applied 11 days after germination as foliar spray; format: functional; conditions: 264 h
Echinochloa crus-galli [14] = test: Post-emergence herbicidal activity against Echinochloa crus-galli (barnyard grass) assessed as mortality at 6.3 g a.i/10 a applied 11 days after germination as foliar spray; format: functional; conditions: 264 h
Cyperus iria [15] = test: Pre-emergence herbicidal activity against Cyperus iria assessed as growth inhibition at 25 g a.i/10 a; format: functional, organism-based
Chenopodium album [16] = test: Pre-emergence herbicidal activity against Chenopodium album assessed as growth inhibition at 25 g a.i/10 a; format: functional, organism-based
Amaranthus retroflexus [17] = test: Pre-emergence herbicidal activity against Amaranthus retroflexus assessed as growth inhibition at 25 g a.i/10 a; format: functional, organism-based
Persicaria nodosa [18] = test: Pre-emergence herbicidal activity against Persicaria nodosa assessed as growth inhibition at 25 g a.i/10 a; format: functional, organism-based
Digitaria sanguinalis [19] = test: Pre-emergence herbicidal activity against Digitaria sanguinalis (hairy crabgrass) assessed as growth inhibition at 25 g a.i/10 a; format: functional, organism-based
Echinochloa crus-galli [20] = test: Pre-emergence herbicidal activity against Echinochloa crus-galli (barnyard grass) assessed as growth inhibition at 25 g a.i/10 a; format: functional, organism-based
Cyperus iria [21] = test: Post-emergence herbicidal activity against Cyperus iria assessed as growth inhibition at 25 g a.i/10 a applied 11 days after germination as foliar spray; format: functional, organism-based
Chenopodium album [22] = test: Post-emergence herbicidal activity against Chenopodium album assessed as growth inhibition at 25 g a.i/10 a applied 11 days after germination as foliar spray; format: functional, organism-based
Amaranthus retroflexus [23] = test: Post-emergence herbicidal activity against Amaranthus retroflexus assessed as growth inhibition at 25 g a.i/10 a applied 11 days after germination as foliar spray; format: functional, organism-based
Persicaria nodosa [24] = test: Post-emergence herbicidal activity against Persicaria nodosa assessed as growth inhibition at 25 g a.i/10 a applied 11 days after germination as foliar spray; format: functional, organism-based
Digitaria sanguinalis [25] = test: Post-emergence herbicidal activity against Digitaria sanguinalis (hairy crabgrass) assessed as growth inhibition at 25 g a.i/10 a applied 11 days after germination as foliar spray; format: functional, organism-based
Echinochloa crus-galli [26] = test: Post-emergence herbicidal activity against Echinochloa crus-galli (barnyard grass) assessed as growth inhibition at 25 g a.i/10 a applied 11 days after germination as foliar spray; format: functional, organism-based
Ipomoea lacunosa [27] = test: Pre-emergence herbicidal activity against Ipomoea lacunosa assessed as mortality per 10 acre; format: functional
Persicaria nodosa [28] = test: Pre-emergence herbicidal activity against Persicaria nodosa assessed as mortality per 10 acre; format: functional
Amaranthus retroflexus [29] = test: Pre-emergence herbicidal activity against Amaranthus retroflexus assessed as mortality per 10 acre; format: functional
Echinochloa crus-galli [30] = test: Pre-emergence herbicidal activity against Echinochloa crus-galli (barnyard grass) assessed as mortality per 10 acre; format: functional
Gossypium hirsutum [31] = test: Pre-emergence phytotoxicity against Gossypium hirsutum (cotton) assessed as mortality per 10 acre; format: organism-based; conditions: in vivo
Xanthium strumarium [32] = test: Post-emergence herbicidal activity against Xanthium strumarium (cocklebur) assessed as mortality per 10 acre; format: functional
Ipomoea lacunosa [33] = test: Post-emergence herbicidal activity against Ipomoea lacunosa assessed as mortality per 10 acre; format: functional
Persicaria nodosa [34] = test: Post-emergence herbicidal activity against Persicaria nodosa assessed as mortality per 10 acre; format: functional
Amaranthus retroflexus [35] = test: Post-emergence herbicidal activity against Amaranthus retroflexus assessed as mortality per 10 acre; format: functional
Echinochloa crus-galli [36] = test: Post-emergence herbicidal activity against Echinochloa crus-galli (barnyard grass) assessed as mortality per 10 acre; format: functional
Xanthium strumarium [37] = test: Pre-emergence herbicidal activity against Xanthium strumarium (cocklebur) assessed as mortality at 1.6 g a.i/10 a; format: functional
Ipomoea lacunosa [38] = test: Pre-emergence herbicidal activity against Ipomoea lacunosa assessed as mortality at 1.6 g a.i/10 a; format: functional
Ipomoea lacunosa [39] = test: Pre-emergence herbicidal activity against Ipomoea lacunosa assessed as mortality at 6.3 g a.i/10 a; format: functional
Xanthium strumarium [40] = test: Pre-emergence herbicidal activity against Xanthium strumarium (cocklebur) assessed as mortality per 10 acre; format: functional
Abutilon theophrasti [41] = test: Post-emergence herbicidal activity against Abutilon theophrasti (velvetleaf) assessed as mortality at 1.6 g a.i/10 a applied 11 days after germination as foliar spray; format: functional; conditions: 264 h
[42] = as §1; format: organism-based; conditions: in vivo, 6.3 g a.i/10 a, read-out: Activity
Gossypium hirsutum [43] = test: Pre-emergence phytotoxicity against Gossypium hirsutum (cotton) assessed as mortality at 1.6 g a.i/10 a; format: organism-based; conditions: in vivo, other
[44] = as §2; format: organism-based; conditions: in vivo, 1.6 g a.i/10 a, read-out: Activity
[45] = as §3; format: organism-based; conditions: in vivo, 6.3 g a.i/10 a, read-out: Activity
Zea mays [46] = test: as §4; format: organism-based; conditions: in vivo, other
Zea mays [47] = test: Pre-emergence phytotoxicity against Zea mays (maize) assessed as mortality at 6.3 g a.i/10 a; format: organism-based; conditions: in vivo, other
Glycine max [48] = test: Post-emergence phytotoxicity against Glycine max (soybean) assessed as mortality at 6.3 g a.i/10 a applied 11 days after germination as foliar spray; format: organism-based; conditions: in vivo, other, 264 h
Glycine max [49] = test: as §5; format: organism-based; conditions: in vivo, other, 264 h
Zea mays [50] = test: as §6; format: organism-based; conditions: in vivo, other, 264 h
Echinochloa crus-galli [51] = test: Post-emergence herbicidal activity against Echinochloa crus-galli (barnyard grass) assessed as mortality at 1.6 g a.i/10 a applied 11 days after germination as foliar spray; format: functional; conditions: 264 h
Abutilon theophrasti [52] = test: Pre-emergence herbicidal activity against Abutilon theophrasti (velvetleaf) assessed as mortality at 1.6 g a.i/10 a; format: functional
Abutilon theophrasti [53] = test: Pre-emergence herbicidal activity against Abutilon theophrasti (velvetleaf) assessed as mortality at 6.3 g a.i/10 a; format: functional
Zea mays [54] = test: Post-emergence phytotoxicity against Zea mays (maize) assessed as mortality at 6.3 g a.i/10 a applied 11 days after germination as foliar spray; format: organism-based; conditions: in vivo, other, 264 h
Xanthium strumarium [55] = test: Pre-emergence herbicidal activity against Xanthium strumarium (cocklebur) assessed as mortality at 6.3 g a.i/10 a; format: functional
[56] = Ipomoea lacunosa, pre-emergence

With `COc1cc(OC)nc(Oc2cccc(C)c2C(=O)O)n1` the ED20 (Gossypium hirsutum [1]) was 0.4 gAi, the mortality at 63 g/ha (Echinochloa crus-galli [2]; Echinochloa crus-galli, pre-emergence) was greater than 90% and the mortality at 16 g/ha (Ipomoea lacunosa [3]) was less than 5%. The mortality at 63 g/ha (Abutilon theophrasti [4]) was greater than 90%, the Activity (Gossypium hirsutum [5]) was “Non-toxic” and the Activity (Glycine max [6]) was “Toxic”. For the same compound, the Activity (Glycine max [7]) was “Toxic”, the mortality ([8]; read-out: mortality) was greater than 90% and the Activity (Gossypium hirsutum [9]) was “Non-toxic”. For the same compound, the Activity (Gossypium hirsutum [10]) was “Non-toxic”, the mortality at 264 h [11] was greater than 90% and the mortality at 264 h [12] was greater than 90%. For the same compound, the mortality at 16 g/ha (Xanthium strumarium [13]) was less than 5%, the mortality at 63 g/ha (Echinochloa crus-galli [14]) was greater than 90% and the “growth inhibition (GI)” value (Cyperus iria [15]) was “Active”. The “growth inhibition (GI)” value (Chenopodium album [16]) was “Active”, the “growth inhibition (GI)” value (Amaranthus retroflexus [17]) was “Active” and the “growth inhibition (GI)” value (Persicaria nodosa [18]) was “Active”. For the same compound, the “growth inhibition (GI)” value (Digitaria sanguinalis [19]) was “Active”, the “growth inhibition (GI)” value (Echinochloa crus-galli [20]) was “Active” and the “growth inhibition (GI)” value (Cyperus iria [21]) was “Active”. The “growth inhibition (GI)” value (Chenopodium album [22]) was “Active”, the “growth inhibition (GI)” value (Amaranthus retroflexus [23]) was “Active” and the “growth inhibition (GI)” value (Persicaria nodosa [24]) was “Active”. For the same compound, the “growth inhibition (GI)” value (Digitaria sanguinalis [25]) was “Active”, the “growth inhibition (GI)” value (Echinochloa crus-galli [26]) was “Active” and the ED90 (Ipomoea lacunosa [27]) was greater than 100 gAi. For the same compound, the ED90 (Persicaria nodosa [28]) was “Active”, the ED90 (Amaranthus retroflexus [29]) was “inactive” and the ED90 (Echinochloa crus-galli [30]) was “Active”. For the same compound, the ED20 (Gossypium hirsutum [31]) was “Toxic”, the ED90 (Xanthium strumarium [32]) was 25 gAi and the ED90 (Ipomoea lacunosa [33]) was 100 gAi. For the same compound, the ED90 (Persicaria nodosa [34]) was 0.4 gAi, the ED90 (Amaranthus retroflexus [35]) was 0.2 gAi and the ED90 (Echinochloa crus-galli [36]) was “inactive”. The mortality at 16 g/ha (Xanthium strumarium [37]; Xanthium strumarium, pre-emergence) was less than 5%, the mortality at 16 g/ha (Ipomoea lacunosa [38]; [56]) was less than 5% and the mortality at 63 g/ha (Ipomoea lacunosa [39]; [56]) was less than 5%. The ED90 (Xanthium strumarium [40]) was greater than 100 gAi.
`CCOc1cccc(Sc2nc(OC)cc(OC)n2)c1C(=O)O` gave an Activity (Echinochloa crus-galli [2]) greater than 90%, a mortality at 16 g/ha (Abutilon theophrasti [41]) greater than 90% and a mortality at 63 g/ha (Abutilon theophrasti [4]) greater than 90%. It also gave a mortality [42] of less than 50%, an Activity (Gossypium hirsutum [43]) of less than 50% and a mortality [44] of less than 50%. For the same compound, the mortality [45] was less than 50%, the Activity (Zea mays [46]) was “Non-toxic” and the Activity (Zea mays [47]) was “Toxic”. For the same compound, the Activity (Gossypium hirsutum [9]) was “Toxic”, the Activity (Gossypium hirsutum [10]) was “Toxic” and the Activity (Glycine max [48]) was “Toxic”. The Activity (Glycine max [49]) was “Toxic”, the Activity (Zea mays [50]) was “Toxic” and the mortality at 16 g/ha (Echinochloa crus-galli [51]) was less than 5%. For the same compound, the Activity (Ipomoea lacunosa [38]) was less than 50%, the Activity (Ipomoea lacunosa [39]) was less than 50% and the Activity (Abutilon theophrasti [52]) was less than 50%. For the same compound, the Activity (Abutilon theophrasti [53]) was less than 50%.
With `CCSc1cccc(Sc2nc(OC)cc(OC)n2)c1C(=O)O` the mortality at 63 g/ha (Abutilon theophrasti [4]) was greater than 90%, the mortality [42] was less than 50% and the Activity (Gossypium hirsutum [43]) was less than 50%. It also gave a mortality [44] of less than 50%, a mortality [45] of less than 50% and a mortality ([8]; read-out: Activity) of less than 50%. For the same compound, the Activity (Zea mays [47]) was “Non-toxic”, the Activity (Gossypium hirsutum [9]) was “Non-toxic” and the Activity (Gossypium hirsutum [10]) was “Non-toxic”. For the same compound, the Activity (Glycine max [48]) was “Toxic”, the Activity (Glycine max [49]) was “Toxic” and the Activity (Zea mays [50]) was “Toxic”. For the same compound, the Activity (Zea mays [54]) was “Toxic”, the mortality at 16 g/ha (Echinochloa crus-galli [51]) was less than 5% and the mortality at 63 g/ha (Echinochloa crus-galli [14]) was less than 5%. It also gave an Activity (Xanthium strumarium [37]) of less than 50%, an Activity (Xanthium strumarium [55]) of less than 50% and an Activity (Ipomoea lacunosa [38]) of less than 50%. It also gave an Activity (Abutilon theophrasti [52]) of less than 50%.
